Source: patent US6774131B1, “Remedies for endothelin-induced diseases” (Yamanouchi Pharmaceutical Co., Ltd., priority 2000, dated 2004)

Experiments:
[1] = system: PPC-1, hormone-refractory human prostate cancer cells; assay: ET-1-induced cell growth (cell number, alamar blue) of PPC-1; type: cell-based; settings: for Cell growth (%): control = 100
Description: PPC-1, hormone-refractory human prostate cancer cells, was used in these experiments(International Journal of Cancer,44,898-903,1989).
Cell number was counted by using a reagent solution of a alamar blue. The cells were seeded at 2×10^4 cells/well in a 24-well plate, after adhesion, the culture media were exchanged to culture media with no FCS-added, and further cultured for another 24 hours. Thereafter, vehicle or ET-1 (10^−11 to 10^−6 M) was added, and cultured for 96 hours. The final volume of the culture medium was 500 μl. Alamar blue of 50 μl was added to the culture, and incubated for 4 hours. After reaction, 100 μl portions collected from the individual wells of the 24-well plate were then transferred to a 96-well plate, and measured the absorbance (at a wave length of 405 nm and a reference wave length of 650 nm) with a plate reader. As a control, the count of a culture to which the vehicle was added was defined 100%, thus the percentage increase of cell number was calculated. The inhibitory effect of the compound was examined by adding the Compound 1 to a final concentration of 10^−9 to 10^−5 M, 30 minutes prior to the addition of ET-1 at 10^−7 M.
At the experiment, the culture medium was exchanged to a culture medium to which ET-1 was contained, 48 hours after stimulation, because the degradation of ET-1 was possible.

[2] = system: MC3T3-E1, mouse osteoblast-like cells; assay: ET-1-induced DNA synthesis ([3H]-thymidine incorporation) in MC3T3-E1; type: cell-based
Description: MC3T3-E1, mouse osteoblast-like cells, was used in these experiments (Journal of Cell Biology,96(1),191-198,1983).
As DNA synthesis level, the incorporation of [^3H]-labeled thymidine was assayed. The cells were seeded at a density of 1.5×10^4 cells/well in a 96-well plate using 0.2% FCS culture medium and cultured for 2 days. Subsequently, vehicle or ET-1 was added to the plate and cultured for 24 hours. Continuously, [^3H-methyl]-thymidine was added at 0.5 μCi/well to the culture and pulse-labeling performed for 6 hours. Continuously, SDS solution to a final concentration of 0.2% was added for solubilization of the cell, and after solubilization the radioactivity of [^3H-methyl]-thymidine used for DNA synthesis was counted with a liquid scintillation counter. As a control, the count of a culture to which the vehicle was added was defined 100%, thus the percentage increase of DNA synthesis was calculated. […]
The results are shown in the form of mean±standard error. The significant difference between groups was analyzed by one-way analysis of variance, to calculate the p-values by the Dunnett's multiple range test. […] At each experiment, the EC50 value of ET-1 and the IC50 value of the Compound 1 were calculated by the Logistic regression analysis.

[3] = system: prostate cancer patients; assay: Clinical study in prostate cancer patients; type: in vivo, human
Description: A clinical study was carried out under the following conditions using the patients suffering from prostate cancer.
Subjects: eighteen patients of at least 45 years of age with prostate cancer(stage D2) who are hormone-refractory or have relapsed after anti-androgen therapy.
Strength: 2,10 and 40 mg tablets
Dosage: 2,4,10,20,60,120and 240 mg/day-dose frequency was once daily ot twice daily
Duration of treatment: four weeks (28 days)
Parameters for evalution: Evaluations and measurements were made for the following items before and after the administration.
(1) Prostate specific antigen (PSA)
(2) Born metabolism markers (bone alkaline phosphatase or ratio of deoxypyridinoline/creatinine)
(3) Bone pain (change of visual analogue scale(VAS)/use of analgesics)

[4] = target: T1, human ETA receptor (Homo sapiens, UniProt P25101); settings: Compound 1: WO97/22595; ABT-627: J.Pharmacol.Exp.Ther.,276,473-481,1996; read-out: affinity to human ETA receptor; cited from earlier work
T1 sequence (P25101 21-427): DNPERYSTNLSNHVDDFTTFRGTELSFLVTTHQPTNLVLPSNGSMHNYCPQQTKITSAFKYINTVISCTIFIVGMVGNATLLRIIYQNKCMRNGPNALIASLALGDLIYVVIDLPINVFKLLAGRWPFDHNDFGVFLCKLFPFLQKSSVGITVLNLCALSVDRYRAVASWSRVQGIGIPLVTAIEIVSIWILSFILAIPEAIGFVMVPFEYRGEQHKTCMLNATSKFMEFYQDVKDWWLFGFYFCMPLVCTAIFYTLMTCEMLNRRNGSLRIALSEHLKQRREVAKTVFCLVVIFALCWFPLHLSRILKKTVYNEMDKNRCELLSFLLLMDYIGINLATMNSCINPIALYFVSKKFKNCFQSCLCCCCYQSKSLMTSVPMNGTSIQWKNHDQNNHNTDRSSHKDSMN

[5] = Plasma concentration when orally administered to humans; type: in vivo, human
Description: For the purpose of the assessment of the pharmacokinetics, tolerance and safety of Compound 1 when orally administered, the Compound 1 was administered at a single dose of 10 mg to 3 subjects of progressive prostate cancer patients after prostatectomy. So as to assay the plasma concentration of intact Compound 1, blood of 6 ml was collected in a lithium heparin-containing polyethylene tube, prior to administration and at individual times of 30 minutes, one hour, 1.5 hour, 2 hours, 3 hours, 4 hours, 6 hours, 8 hours, 12 hours, 24 hours, 36hours and 48hours after administration, followed by immediate centrifugation (4° C., 10 minutes, 3500 rpm), to recover the plasma. The plasma samples were stored under freezing at −70° C. until the concentration was assayed. The plasma concentration was assayed by the LC-MS/MS method.

[6] = 2-240 mg/day, four weeks, eighteen patients
[7] = single oral dose 10 mg, prostate cancer patients, plasma

COc1ccccc1Oc1c(NS(=O)(=O)C=Cc2ccccc2)nc(-c2ncccn2)nc1OC.[K] [Compound 1, N-[6-methoxy-5-(2-methoxyphenoxy)-2-(2-pyrimidinyl)-4-pyrimidinyl]-2-phenylethenesulfoneamide•potassium salt]
Cell growth (%) ([1]; Compound 1 10^−5 M with ET-1 10^−7 M, n = 7): 98.1% | Cell growth (%) ([1]; Compound 1 10^−6 M with ET-1 10^−7 M, n = 7): 99.2% | concentration from which ET-1-induced cell growth was inhibited ([1]; ET-1 10^−7 M): ≥ 10^−6 M | IC50 ([2]; ET-1 10^−10 M, read-out: IC50 of ET-1-induced increase in [3H]-thymidine incorporation): 11.5 nM | effective dose relative to the minimum effective dose of ABT-627 ([3]; 2 mg vs 10 mg): ⅕ | patients with decreased bone specific alkaline phosphatase [3, 6]: eleven (out of eighteen) | patients with improved pain score VAS [3, 6]: nine (out of eighteen) | patients with improved prostate cancer marker PSA [3, 6]: ten | patients with improved ratio of deoxypyridinoline/creatinine [3, 6]: fourteen (out of eighteen) | patients with reduced analgesics [3, 6]: four (out of eighteen) | patients with stabilized PSA [3, 6]: two | dose from which effective ([3]; Test Example 5, prostate cancer patients): ≥ 2 mg | dose from which effective in improving each observed item ([3]; oral tablets, four weeks): ≥ 2 mg/day | Ki [4]: 0.697 nM | AUC ratio Compound 1 (10 mg)/ABT-627 (20 mg) ([5]; oral, humans, listed as The effective component of the invention): about 18 fold | AUC [5, 7]: 14700 ng·h/mL | Cmax [5, 7]: 1000 ng/mL | T max [5, 7]: 2 h | T ½ [5, 7]: 13 h

ET-1: endothelin; induces pain in humans and experimental animals; used as stimulus of pain, Ca2+ increase and cell growth [reference compound]
concentration from which ET-1-induced cell growth was observed [1]: ≥ 10^−11 M | Cell growth (%) ([1]; ET-1 10^−7 M, 96 h, n = 7 (Table 2)): 119.3% | Cell growth (%) ([1]; ET-1 10^−7 M, Compound 1 0 (Table 3), n = 7): 110.5% | Cell growth (%) ([1]; ET-1 10^−8 M, 96 h, n = 7): 115.3% | Cell growth (%) ([1]; ET-1 10^−9 M, 96 h, n = 7): 124.0% | Cell growth (%) ([1]; ET-1 10^−10 M, 96 h, n = 7): 122.3% | Cell growth (%) ([1]; ET-1 10^−11 M, 96 h, n = 7): 119.6% | EC50 ([2]; ET-1 10^−13 to 10^−6 M, read-out: EC50 of increase of [3H]-thymidine incorporation (DNA synthesis)): 0.00984 nM
